Reference: article PMC6225122 (2018)
Converted amounts (≈) assume the structure as drawn.

Tests used:
[1] = system: aptamer 154 (DNA, aptamer) ACGCATAGGGCATCACACATGTCCTTGCCATTGCTGACTTGTTTGGTGTCCTATGCGT; test: AuNP colorimetric specificity assay (A620/A520); conditions: 0.9 M NaCl added after binding; 1 μg/mL compound, 0.4 μM aptamer, room temperature, 30 min
[2] = system: aptamer 47 (DNA, aptamer) ACGCATAGGTCATGCCAAGCTGTACACCGTCCTGGCCTGGTTGGGATGTCCTATGCGT; test: AuNP colorimetric specificity assay (A620/A520); conditions: 0.9 M NaCl added after binding; 1 μg/mL compound, 0.4 μM aptamer, room temperature, 30 min
[3] = system: aptamer 28 (DNA, aptamer) ACGCATAGGATGCAACAACGCGAATGCCACCAATTCGTGCTTGTCGTGTCCTATGCGT; test: AuNP colorimetric specificity assay (A620/A520); conditions: 0.9 M NaCl added after binding; 1 μg/mL compound, 0.4 μM aptamer, room temperature, 30 min
[4] = system: aptamer 64 (DNA, aptamer) ACGCATAGGTACACCACATCGGATCGTAATGCGTATGTGACTCAGTGTGCCTATGCGT; test: AuNP colorimetric specificity assay (A620/A520); conditions: 0.9 M NaCl added after binding; 1 μg/mL compound, 0.4 μM aptamer, room temperature, 30 min
[5] = system: aptamer 78 (DNA, aptamer) ACGCATAGGGTACGCCACAGATCGACCTCTGGTTGGTCCTGTTGTGTGGCCTATGCGT; test: AuNP colorimetric specificity assay (A620/A520); conditions: 0.9 M NaCl added after binding; 1 μg/mL compound, 0.4 μM aptamer, room temperature, 30 min
[6] = system: aptamer 132 (DNA, aptamer) ACGCATAGGGACCATGCGCAGTGAACTTGGTTCTTTGTGCTCATGTGTGCCTATGCGT; test: AuNP colorimetric specificity assay (A620/A520); conditions: 0.9 M NaCl added after binding; 1 μg/mL compound, 0.4 μM aptamer, room temperature, 30 min
[7] = system: aptamer 78 (DNA, aptamer) ACGCATAGGGTACGCCACAGATCGACCTCTGGTTGGTCCTGTTGTGTGGCCTATGCGT; test: circular dichroism; conditions: binding buffer: 8 g/L NaCl, 0.2 g/L KCl, 0.1 g/L MgCl2·6H2O, 0.1 g/L CaCl2; 1 μM aptamer, 10 μM CBL, room temperature, 30 min
[8] = system: aptamer 64 (DNA, aptamer) ACGCATAGGTACACCACATCGGATCGTAATGCGTATGTGACTCAGTGTGCCTATGCGT; test: circular dichroism; conditions: binding buffer: 8 g/L NaCl, 0.2 g/L KCl, 0.1 g/L MgCl2·6H2O, 0.1 g/L CaCl2; 1 μM aptamer, 10 μM CBL, room temperature, 30 min
[9] = system: aptamer 132 (DNA, aptamer) ACGCATAGGGACCATGCGCAGTGAACTTGGTTCTTTGTGCTCATGTGTGCCTATGCGT; test: AuNP colorimetric titration (A520); conditions: 0.9 M NaCl (10 µL) added after binding; aptamer 0-1600 nM titrated against 1 μg/mL CBL, water, 30 min, room temperature
[10] = system: aptamer 47 (DNA, aptamer) ACGCATAGGTCATGCCAAGCTGTACACCGTCCTGGCCTGGTTGGGATGTCCTATGCGT; test: circular dichroism; conditions: binding buffer: 8 g/L NaCl, 0.2 g/L KCl, 0.1 g/L MgCl2·6H2O, 0.1 g/L CaCl2; 1 μM aptamer, 10 μM CBL, room temperature, 30 min
[11] = system: aptamer 78 (DNA, aptamer) ACGCATAGGGTACGCCACAGATCGACCTCTGGTTGGTCCTGTTGTGTGGCCTATGCGT; test: AuNP colorimetric titration (A520); conditions: 0.9 M NaCl (10 µL) added after binding; aptamer 0-1600 nM titrated against 1 μg/mL CBL, water, 30 min, room temperature
[12] = system: aptamer 154 (DNA, aptamer) ACGCATAGGGCATCACACATGTCCTTGCCATTGCTGACTTGTTTGGTGTCCTATGCGT; test: AuNP colorimetric titration (A520); conditions: 0.9 M NaCl (10 µL) added after binding; aptamer 0-1600 nM titrated against 1 μg/mL CBL, water, 30 min, room temperature
[13] = system: aptamer 28 (DNA, aptamer) ACGCATAGGATGCAACAACGCGAATGCCACCAATTCGTGCTTGTCGTGTCCTATGCGT; test: circular dichroism; conditions: binding buffer: 8 g/L NaCl, 0.2 g/L KCl, 0.1 g/L MgCl2·6H2O, 0.1 g/L CaCl2; 1 μM aptamer, 10 μM CBL, room temperature, 30 min
[14] = system: aptamer 154 (DNA, aptamer) ACGCATAGGGCATCACACATGTCCTTGCCATTGCTGACTTGTTTGGTGTCCTATGCGT; test: circular dichroism; conditions: binding buffer: 8 g/L NaCl, 0.2 g/L KCl, 0.1 g/L MgCl2·6H2O, 0.1 g/L CaCl2; 1 μM aptamer, 10 μM CBL, room temperature, 30 min
[15] = system: 5′-biotin aptamer 47 (DNA, aptamer) ACGCATAGGTCATGCCAAGCTGTACACCGTCCTGGCCTGGTTGGGATGTCCTATGCGT; test: indirect competitive enzyme-linked aptamer assay (ic-ELAA); conditions: binding buffer: 8 g/L NaCl, 0.2 g/L KCl, 0.1 g/L MgCl2·6H2O, 0.1 g/L CaCl2; competition with coated CBL-BSA; 1 μM aptamer (50 μL), 37 °C, 1 h
[16] = system: aptamer 132 (DNA, aptamer) ACGCATAGGGACCATGCGCAGTGAACTTGGTTCTTTGTGCTCATGTGTGCCTATGCGT; test: circular dichroism; conditions: binding buffer: 8 g/L NaCl, 0.2 g/L KCl, 0.1 g/L MgCl2·6H2O, 0.1 g/L CaCl2; 1 μM aptamer, 10 μM CBL, room temperature, 30 min
[17] = system: aptamer 64 (DNA, aptamer) ACGCATAGGTACACCACATCGGATCGTAATGCGTATGTGACTCAGTGTGCCTATGCGT; test: AuNP colorimetric titration (A520); conditions: 0.9 M NaCl (10 µL) added after binding; aptamer 0-1600 nM titrated against 1 μg/mL CBL, water, 30 min, room temperature
[18] = system: aptamer 28 (DNA, aptamer) ACGCATAGGATGCAACAACGCGAATGCCACCAATTCGTGCTTGTCGTGTCCTATGCGT; test: AuNP colorimetric titration (A520); conditions: 0.9 M NaCl (10 µL) added after binding; aptamer 0-1600 nM titrated against 1 μg/mL CBL, water, 30 min, room temperature
[19] = system: aptamer 47 (DNA, aptamer) ACGCATAGGTCATGCCAAGCTGTACACCGTCCTGGCCTGGTTGGGATGTCCTATGCGT; test: AuNP colorimetric titration (A520); conditions: 0.9 M NaCl (10 µL) added after binding; aptamer 0-1600 nM titrated against 1 μg/mL CBL, water, 30 min, room temperature

Compound	binding [1]	binding [2]	binding [3]	binding [4]	binding [5]	binding [6]	binding [7]	binding [8]	Kd [9]	binding [10]	Kd [11]	Kd [12]	binding [13]	binding [14]	IC50 [15]	binding [16]	Kd [17]	Kd [18]	Kd [19]
CC(C)(C)NCC(O)c1cc(O)cc(O)c1 (stereo not shown)	no	no	no	no	no	no													
CC(C)(C)NCC(O)c1cc(Cl)c(N)c(Cl)c1 (stereo not shown)							yes	yes	221.6 ± 41.87 nM	yes	201.1 ± 42.42 nM	268.8 ± 40.43 nM	yes	yes	5.44 ± 0.01 ng/mL (≈ 0.0196 µM)	yes	123.3 ± 14.28 nM	321 ± 104.5 nM	42.17 ± 8.98 nM
CC(C)(C)NCC(O)c1ccc(O)c(CO)c1 (stereo not shown)	no	no	no	no	no	no													
CC(CCc1ccc(O)cc1)NCC(O)c1ccc(O)cc1 (stereo not shown)	no	no	no	no	no	no													
